Results taken from paper PMC7482845, “G10 is a direct activator of human STING” (PLoS ONE, 2020).
Where two headings read alike, the source gives them in different places.

Columns and labels:
[1] = molecular target: T1, R232.hSTING (CT26 cells) (Homo sapiens, UniProt Q86WV6, H232R); assay: Western blot of Hu-pSTING and pIRF3 in R232.hSTING.CT26 cells; assay type: cell-based; details: immunoblot, 2 hours
T1 construct: expressed in transfected cells; host or cells: CT26 (murine)
Experimental: (§1) 5 x 10^5 cells were seeded in 24-well plates in 500 μl growth medium and stimulated with novel compounds at 10μM. After 2 hours of treatment cells were harvested by centrifugation and cell pellets were lysed in RIPA buffer (20mM Tris-Cl, 150mM NaCl, 0.5mM EDTA, 1% NP40, 0.05% SDS) containing 1x phosphatase inhibitor cocktail 3 (Sigma) and 1x protease inhibitor (Roche) to extract the soluble fraction of protein. 10 μg of extracted protein was electrophoresed in 10% SDS-PAGE gels and transferred onto Immobilon-P membranes (Millipore).

[2] = molecular target: T2, full length R232.hSTING (ER fraction of transfected HEK293T cells) (Homo sapiens, UniProt Q86WV6, H232R); assay: In vitro kinase assay, ER fraction with full length R232 STING plus recombinant TBK1; assay type: biochemical; details: cell free, immunoblot
T2 construct: ER fraction (8mg/ml) containing full length STING from R232.hSTING; host or cells: ER fraction of R232.hSTING HEK293T cells
Experimental: This was followed by homogenization 3 times with a 30 sec each pulse and 1 min cooling between each pulse. Homogenates were centrifuged at 5000g for 10 min at 4 °C to remove nuclei, mitochondria and cell membrane from the cytosolic fraction. Supernatant was further centrifuged at 100000g for 1 h at 4 °C to fractionate the ER containing cytosolic fraction. The pellet thus obtained was resuspended in homogenization buffer and washed by centrifugation at 100000g twice. Post washing, the ER fraction containing pellet was resuspended in ER buffer (final composition: 20 mM Tris-HCl, 100 mM NaCl, 5 mM MgCl2, 5 mM MnCl2, 20 mM beta Glycerophosphate, 0.2 mM Na3VO4, 1X protease inhibitor cocktail (Roche), pH 7.5) using a syringe fitted with a 26G needle passing through it several times till homogeneity. The protein content of the ER homogenate was estimated by the BCA method and aliquots were stored at -80 °C for further use. […]

[3] = molecular target: HAQ variant of human STING (Homo sapiens, UniProt Q86WV6, G230A/R293Q/R71H); assay: Luciferase (ISRE.ISG reporter) assay in HEK293T cells stably expressing HAQ hSTING; assay type: cell-based; details: ISRE.ISG54 luciferase reporter, 18 hours, compared with R232 and H232
Description: (§2) • a) Stable STING expressing cells. Stable HEK293T STING-expressing cell lines were generated using plasmids purchased from Invivogen, CA, USA, that contain STING cDNA cloned into the pUNO-1 vector under the hEF1-HTLV promoter as well as the Blasticidin selection cassette. The human STING plasmids corresponding to the R232, H232 and HAQ variants were directly procured from Invivogen while the AQ and Q variants were created by mismatch PCR using cDNA from HAQ.STING and R232.STING variants respectively. These vectors were individually transfected into HEK293T cells using Lipofectamine (Invitrogen) and transfected cells were expanded under Blasticidin selection. These cells were further subjected to clonal selection using the limiting dilution method to obtain clonally pure populations of HEK293T cells expressing each of the five human STING variants. Clones with minimal ligand independent activation of STING were chosen for cellular experiments. • b) N-His R232.hSTING HEK293T cells. HEK293T cells stably expressing N-His R232.hSTING were generated by the following described method. N-His R232.hSTING.pcDNA Myc B plasmid was transfected into HEK293T cells using Lipofectamine reagent (Invitrogen) and the transfected cells were selected under Hygromycin. […]

[4] = molecular target: T3, HAQ STING (THP-1 cells) (Homo sapiens, UniProt Q86WV6, G230A/R293Q/R71H); assay: Western blot of pSTING and pIRF3 in THP-1 cells; assay type: cell-based; details: immunoblot, 2 hours
T3 construct: THP1 cells constitutively express the HAQ variant of human STING; host or cells: THP-1
Experimental: as §1

[5] = molecular target: T4, AQ variant of human STING (Homo sapiens, UniProt Q86WV6, G230A/R293Q); assay: Luciferase (ISRE.ISG reporter) assay in HEK293T cells stably expressing AQ hSTING; assay type: cell-based
T4 construct: expressed in transfected cells
Description: as §2, with “cells.” for “cells. HEK293T cells stably expressing N-His R232.hSTING were generated by the following described method. N-His R232.hSTING.pcDNA Myc B plasmid was transfected into HEK293T cells using Lipofectamine reagent (Invitrogen) and the transfected cells were selected under Hygromycin.”
[…] clonally selected HEK293T-hSTING-Luciferase cells or control HEK293T-Luciferase cells were seeded in 384-well plates in growth medium and stimulated with known STING agonists or novel compounds. Supernatants were removed after 20 hours of treatment and secretory reporter gene activity was measured using the Quanti-Luc detection system (Invivogen) on a Spectramax i3X luminometer.

[6] = molecular target: T5, R232 variant of human STING (Homo sapiens, UniProt Q86WV6, H232R); assay: Luciferase (ISRE.ISG reporter) assay in HEK293T cells stably expressing R232 hSTING; assay type: cell-based
T5 construct: the ER fraction from R232.STING transfected HEK293T cells which contained full length STING
Description: • a) Stable STING expressing cells. Stable HEK293T STING-expressing cell lines were generated using plasmids purchased from Invivogen, CA, USA, that contain STING cDNA cloned into the pUNO-1 vector under the hEF1-HTLV promoter as well as the Blasticidin selection cassette. The human STING plasmids corresponding to the R232, H232 and HAQ variants were directly procured from Invivogen while the AQ and Q variants were created by mismatch PCR using cDNA from HAQ.STING and R232.STING variants respectively. These vectors were individually transfected into HEK293T cells using Lipofectamine (Invitrogen) and transfected cells were expanded under Blasticidin selection. These cells were further subjected to clonal selection using the limiting dilution method to obtain clonally pure populations of HEK293T cells expressing each of the five human STING variants. Clones with minimal ligand independent activation of STING were chosen for cellular experiments. • b) N-His R232.hSTING HEK293T cells. HEK293T cells stably expressing N-His R232.hSTING were generated by the following described method. N-His R232.hSTING.pcDNA Myc B plasmid was transfected into HEK293T cells using Lipofectamine reagent (Invitrogen) and the transfected cells were selected under Hygromycin. Stably STING expressing HEK293T cells thus selected were further subjected to single cell clonal selection using the limiting dilution method to obtain a clonally pure population of HEK293T cells expressing the human R232 STING variant.
[…] clonally selected HEK293T-hSTING-Luciferase cells or control HEK293T-Luciferase cells were seeded in 384-well plates in growth medium and stimulated with known STING agonists or novel compounds. […]

[7] = tested on: THP1 cells; design: method as in PMID 26646986; details: cited from earlier work

T5 sequence (Q86WV6 whole entry H232R): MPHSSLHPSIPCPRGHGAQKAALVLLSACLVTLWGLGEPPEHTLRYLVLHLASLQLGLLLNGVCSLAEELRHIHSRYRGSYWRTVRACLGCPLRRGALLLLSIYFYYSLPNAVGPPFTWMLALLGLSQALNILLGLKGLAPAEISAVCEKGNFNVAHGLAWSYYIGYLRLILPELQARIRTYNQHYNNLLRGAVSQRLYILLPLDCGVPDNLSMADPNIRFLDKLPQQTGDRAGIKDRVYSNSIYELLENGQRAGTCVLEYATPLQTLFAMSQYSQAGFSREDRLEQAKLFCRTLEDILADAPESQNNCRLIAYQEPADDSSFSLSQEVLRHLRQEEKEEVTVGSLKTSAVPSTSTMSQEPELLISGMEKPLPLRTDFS
T4 sequence (Q86WV6 whole entry G230A/R293Q): as the sequence (Q86WV6 whole entry H232R) above, with G230A, R232H, R293Q counted along it
T2 sequence (Q86WV6 whole entry H232R): as the sequence (Q86WV6 whole entry H232R) above
T1 sequence (Q86WV6 whole entry H232R): as above
HAQ variant of human STING, sequence (Q86WV6 whole entry R71H/G230A/R293Q): as the sequence (Q86WV6 whole entry H232R) above, with R71H, G230A, R232H, R293Q counted along it
T3 sequence (Q86WV6 whole entry R71H/G230A/R293Q): as the sequence (Q86WV6 whole entry H232R) above, with R71H, G230A, R232H, R293Q counted along it

SMILES: O=C(NCc1ccco1)c1ccc2c(c1)N(Cc1c(F)cccc1Cl)C(=O)CS2 [Compound G10, 4-(2-Chloro-6-fluorobenzyl)-N-(furan-2-ylmethyl)-3-oxo-3,4-dihydro-2H-benzo[b][1,4]thiazine-6-carboxamide]
- phosphorylated hSTING (and mIRF3) in CT26 cells overexpressing R232.hSTING [1]: significant amounts
- formation of pSTING by TBK1, ER fraction with full length R232 STING [2]: activated
- activity against the HAQ variant [3]: less active
- phosphorylation of STING and IRF3 (pSTING, pIRF3) in THP1 cells [4]: unable to detect either pSTING or pIRF3
- activity against the AQ variant [5]: barely active
- EC50 ([6]; HEK293T cells expressing R232 hSTING, luciferase reporter, read-out: HEK.R232 EC50): 2.49 µM
- EC50 ([6]; ISRE.ISG54 luciferase reporter, HEK293T, 18 hours, read-out: estimated EC50, R232 variant): 2.5 µM
- activation of IRF3 or NFκB linked reporters in THP1 [7]: unable to activate
